Non-standard residues stand in square brackets, D forms with d. Residues, ends and D or L forms follow the SMILES beside them. No end group written: not given here.

Data set [1] deals with T1, CB1R and 5-HT2AR heteromers (Homo sapiens, UniProt P28223).
T1 construct: expressed in transfected cells; host or cells: HEK-293T
The data set is described as follows: Disruption of CB1R and 5-HT2AR heteromers by bimolecular fluorescence complementation. The data set is classed as cell-based. Particulars: HEK-293T, CB1R-nYFP + 5-HT2AR-cYFP, peptide 4 μM, 4 h, 37° C. From the text: The method described in “Viñals* X, Moreno* E, Lanfumey L, Cordomi A, Pastor A, de La Torre R, Gasperini P, Navarro G, Howell L A, Pardo L, Lluís C, Canela El, McCormick* P J, Maldonado* R, Robledo* P. Cognitive Impairment Induced by Delta9-tetrahydrocannabinol Occurs through Heteromers between Cannabinoid CB1 and Serotonin 5-HT2A Receptors. PLoS Biology, 13(7): e1002194 (2015)” was used with the slight modifications herein described herein to determine the in vitro capacity of the peptides to disrupt CB1R and 5-HT2AR heteromers.
To obtain the YFP Venus hemi-truncated proteins fused to the receptors of interest (5-HT2AR-cYFP, CB1R-nYFP), 5-HT2AR was subcloned to be in-frame with restriction sites of pcDNA3.1-cVenus, which contained the sequences encoding amino acid residues 156-238 of YFP Venus protein. Moreover, CB1R was subcloned to be in-frame with restriction sites of pcDNA3.1-nVenus, which contained the sequences encoding amino acid residues 1-155 of YFP Venus protein.
Expression of constructs was tested by confocal microscopy and the receptor fusion protein functionality by ERK1/2 phosphorylation.
Human embryonic kidney (HEK-293T) cells obtained from ATCC were grown in Dulbecco's modified Eagle's medium (DMEM) (Gibco) supplemented with 2 mM L-glutamine, 100 μg/ml sodium pyruvate, 100 U/ml penicillin/streptomycin, MEM Non-Essential Amino Acids Solution (1/100), and 5% (v/v) heat inactivated fetal bovine serum (FBS) (all supplements were from Invitrogen, Paisley, Scotland, UK). Cells were maintained at 37° C. in an atmosphere of 5% CO2.
Cells growing in 6-well dishes were transiently transfected with the cDNA encoding for CB1R fused to the YFP Venus N-terminal fragment (n-YFP) and 5-HT2AR fused to the YFP Venus C-terminal fragment (c-YFP) by the PEI (PolyEthylenlmine, Sigma) method. Cells were incubated 4 h with the corresponding cDNA together with PEI and 150 mM NaCl in a serum-starved medium. After 4 h, the medium was changed to a fresh complete culture medium.
After 48 h, cells were treated or not with the indicated TAT-peptides (4 μM) for 4 h at 37° C. To quantify the complemented YFP Venus expression, cells were washed twice in quick succession in HBSS with 10 mM glucose, detached, and resuspended in the same buffer. To control the cell number, sample protein concentration was determined using a Bradford assay kit (Bio-Rad, Munich, Germany) using bovine serum albumin dilutions as standards. 20 μg protein were distributed into 96-well microplates (black plates with a transparent bottom, Porvair, King's Lynn, UK), and fluorescence emission at 530 nm after the excitation at 500 nm with a Mithras LB940 (Berthold Technologies, Bad Wildbad, Germany) was recorded. Protein fluorescence was determined as fluorescence of the sample minus the fluorescence of untransfected cells (basal).

Data set [2] relates to trypsin. Briefly: in vitro. The conditions noted are these: pH 8.2.
Experimental: (§7) A 1000 μg/1000 μL trypsin solution (Thermo Fisher Scientific) was prepared by suspending the lyophilized enzyme in 50 mM ammonium bicarbonate buffer, pH 8.2. Peptide dissolved in the same buffer (1 μg/L) was incubated with trypsin (peptide:trypsin ratio=100:1) for 24 h at 37° C. Samples were collected at various time points and digestion was stopped by addition of 20% (v/v) of 0.5% formic acid in H2O. Samples were stored at −20° C. until analyzed by reverse-phase HPLC-MS. Experiments are performed in duplicate and data were fit with GraphPad Prism.
In data set [3] the test system is bEnd.3 cells. Briefly: in vitro. The conditions noted are these: bEnd.3, 24 h, 0.01-50 μM. Here is the method:
(§1) bEnd.3 brain endothelioma cells (ATCC® CRL-2299TM) were grown as a monolayer on 75 cm^2 T-flasks in DMEM supplemented with 10% fetal bovine serum (FBS), and 1% penicillin/streptomycin antibiotic solution (Gibco™, USA). Cells were cultured in a humidified atmosphere of 95% air and 5% CO2 at 37° C. (MCO-18AIC (UV), Sanyo, Japan), with the medium changed every other day. The cells were harvested from cell culture T-flasks when confluent with trypsin-EDTA (Gibco™, USA) and used in different assays (cell proliferation, in vitro BBB translocation and in vitro Bimolecular Fluorescence complementation).
(§2) The in vitro cytotoxicity of the compound to be evaluated is studied using the same cell line of the in vitro BBB model, namely bEnd.3 cells, to evaluate possible toxicity. bEnd.3 cell line was exposed to increasing concentrations of the compound for 24 h.
(§3) The assay is based on the ability of viable cells to reduce resazurin into resorufin, a highly fluorescent metabolite. Non-viable cells are not able to generate resorufin.
(§4) Therefore, using this approach is possible to distinguish between metabolic and non-metabolic cells, and indirectly to determine the cytotoxicity of different compounds. bEnd.3 cells were seeded onto a 96-well plate (Corning, USA) at 10,000 cells/100 μL/well and incubated for 24 h. After medium removal, 100 μL of previous diluted peptides (range between 0.01-50 μM) in DMEM medium were added to the wells. After 24 h incubation, 20 μL of CellTiter-Blue® Reagent was added to each well and incubated for 3 h in a humidified atmosphere of 5% CO2 at 37° C. The fluorescence intensity was measured with an λexc=560 nm and an λem=590 nm using an Infinite F200 TECAN plate reader. Medium and 1% Triton X-100-containing medium were used as positive controls (100% cell viability) and negative controls (0% cell viability), respectively. Cell viability (%) was determined using the following equation:
(§5) [formula] where Fp is the fluorescence intensity of peptide-treated cells, FNC is the fluorescence intensity for negative controls, and FPC is the fluorescence intensity for positive controls.
(§6) Experiments were performed on different days using independently grown cell cultures.

Data set [4] can be described thus: in vitro. Particulars: mouse, bEnd.3 brain endothelioma cells. The protocol: as §1, §2, §3, §4, §5, §6
The test system of data set [5] is trypsin. Particulars: peptide remaining by HPLC, incubation with trypsin 100:1, 37° C.
Experimental: as §7
Data set [6] is described as follows: Novel object recognition test (memory). Particulars: Vehicle (IV) + THC 3 mg/kg IP, mice. The data set is classed as in vivo. Here is the method:
The method described in “Puighermanal E, Marsicano G, Busquets-Garcia A, Lutz B, Maldonado R, Ozaita A. Cannabinoid modulation of hippocampal long-term memory is mediated by mTOR signaling. Nature Neuroscience, 12(9): 1152-8 (2009)” was used with the slight modifications herein described to assess the effect of the peptides on memory.
On day 1 (Habituation), mice were habituated for 9 min to the V-maze in which the task was performed. On the second day (Training), mice were put back in the V-maze for 9 min, two identical objects were presented and the time that the mice spent exploring each object was recorded. The mice were again placed in the maze 24 h later for 9 min (Test), one of the familiar objects was replaced with a novel object and the total time spent exploring each of the two objects (novel and familiar) was computed. Object exploration was defined as the orientation of the nose to the object at less than 2 cm. A discrimination index was calculated as the difference between the times spent exploring the novel or familiar object divided by the total time exploring the two objects. A higher discrimination index is considered to reflect greater memory retention for the familiar object as normal mice spend more time exploring a novel object than a familiar one. […]

Data set [7] can be described thus: Hot plate test (analgesic effect). The data set is classed as in vivo. The conditions noted are these: Vehicle (IV) + THC 10 mg/kg IP, hot plate 52° C., mice. Here is the method:
The method described in “Monory K, Blaudzun H, Massa F, Kaiser N, Lemberger T, Schütz G, Wotjak C T, Lutz B*, Marsicano G*. Genetic Dissection of Behavioural and Autonomic Effects of D9-tetrahydrocannabinol in Mice. PLoS Biology, 5(10): e269, 2007” was used with the slight modifications herein described to assess the analgesic effect of the peptides.
THC-induced analgesia was measured using a hot plate analgesia meter (Hot/Cold Plate Test, Bioseb, USA) 60 min after intraperitoneal injection (IP) of THC dissolved in an IP vehicle (5% v/v of ethanol, 5% v/v of Cremophor-EL and 90% v/v saline) or injection of the vehicle (saline plus 2% DMSO) alone and by intravenous injection 90 min after the first injection of the peptide to be tested in an IV vehicle or of the vehicle alone. […] A cut-off time of 240 s was set to prevent tissue damage.

T1 sequence (P28223 whole entry, one chain of several): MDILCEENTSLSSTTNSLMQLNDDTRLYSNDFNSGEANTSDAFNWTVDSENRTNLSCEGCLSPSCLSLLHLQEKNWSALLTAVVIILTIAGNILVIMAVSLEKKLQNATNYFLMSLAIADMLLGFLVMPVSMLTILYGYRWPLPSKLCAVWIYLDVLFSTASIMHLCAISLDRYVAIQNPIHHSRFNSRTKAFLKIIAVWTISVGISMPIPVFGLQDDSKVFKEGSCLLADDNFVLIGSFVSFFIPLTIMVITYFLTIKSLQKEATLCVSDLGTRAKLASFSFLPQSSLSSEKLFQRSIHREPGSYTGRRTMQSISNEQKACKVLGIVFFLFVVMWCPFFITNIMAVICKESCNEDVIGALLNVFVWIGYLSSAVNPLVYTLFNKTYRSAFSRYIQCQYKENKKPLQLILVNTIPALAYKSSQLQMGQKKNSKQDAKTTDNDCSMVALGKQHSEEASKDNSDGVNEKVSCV

`CC[C@@H](C)[C@@H](NC(=O)CNC(=O)[C@@H](C)NC(=O)[C@H](NC(=O)[C@@H](Cc1ccc(O)cc1)NC(=O)[C@@H](C)NC(=O)[C@@H](Cc1ccc(O)cc1)NC(=O)[C@@H](CCSC)NC(=O)[C@@H](Cc1ccc(O)cc1)NC(=O)[C@H](NC(=O)[C@@H](CC(C)C)NC(=O)[C@H](N)Cc1c[nH]c2ccccc12)[C@H](C)CC)C(C)C)C(=O)N[C@H](CC(C)C)C(=O)N[C@H](CCCCN)C(=O)N[C@H](CCCNC(=N)N)C(=O)N[C@H](Cc1c[nH]c2ccccc12)C(N)=O` [Example 1, D-Trp-D-Leu-D-Ile-D-Tyr-D-Met-D-Tyr-D-Ala-D-Tyr-D-Val-D-Ala-Gly-D-Ile-D-Leu-D-Lys-D-Arg-D-Trp-NH2] (H-[dW][dL][dI][dY][dM][dY][dA][dY][dV][dA]G[dI][dL][dK][dR][dW]-NH2): in data set [1], the “% vs. control (bimolecular fluorescence complementation)” value (“% vs. control” for short) was found to be 49.8%. Also, in data set [2], the amount remaining at 24 h, 1 μg/L came out at 83 ± 4.04%. In data set [3], the “toxicity (in words)” value is listed as “no significant toxicity”. Moreover, in data set [4], the EC50 at 24 h is above 50 µM; the viability at 24 h, 0.012 µM is 98.3%; the viability at 24 h, 0.024 µM was determined as 98.3%; the viability at 24 h, 0.049 µM was found to be 98.7%. Also, in data set [4], the viability at 24 h, 0.1 µM is 95.4%; the viability at 24 h, 0.2 µM was found to be 100%; the viability at 24 h, 0.39 µM was 102%; the viability at 24 h, 0.78 µM is 98.9%. In data set [4], the viability at 24 h, 1.56 µM amounted to 102%; the viability at 24 h, 3.12 µM was found to be 100%; the viability at 24 h, 6.25 µM amounted to 96.6%; the viability at 24 h, 12.5 µM is 104%. In data set [4], the viability at 24 h, 25 µM came out at 96.6% and the viability at 24 h, 50 µM was determined as 75.7%. For the same compound, the “% at t = 24 h” value in data set [5] (pH 8.2, 24 h) is recorded as “over 80%”. In addition, the “% at t = 0” value in data set [5] (pH 8.2, t = 0) is listed as 100.00 ± 2.05%.

With `CCCCCc1cc(O)c2c(c1)OC(C)(C)[C@@H]1CCC(C)=C[C@@H]21` [THC, Δ9-tetrahydrocannabinol], the “Discrimination index % increase vs. control” value in data set [6] is on record as −52%. Further, in data set [7], the “Jumping latency % increase vs control” value is given as 71.4% and the “Licking latency % increase vs control” value worked out at 104.2%.

Take “Glu-Thr-Tyr-Leu-Met-Phe-Trp-Ile-Gly-Val-Thr-Ser-Val-Leu-Leu-Leu-Phe-Ile-Val-Tyr-Ala-Tyr-Met-Tyr-Ile-Leu-Trp-Gly-Arg-Lys-Lys-Arg-Arg-Gln-Arg-Arg-Arg-NH2 (ETYLMFWIGVTSVLLLFIVYAYMYILWGRKKRRQRRR-NH2) [Reference Example 1]”: in data set [1], the “% vs. control” value was 52.2% and the “Fluorescense units (bimolecular fluorescence complementation)” value (“Fluorescense units” below) was 11154 fluorescence units.

As for “VYAYMYILW[dA]G[dI][dL][dK][dR][dW]-NH2 [Reference Example 2]”, in data set [1], the “% vs. control” value amounted to 63.5% and the “Fluorescense units” value turned out to be 13568 fluorescence units.

For the compound “[dW][dL][dI][dY][dM][dA]G[dI][dL][dK][dR][dW]-NH2 [Reference Example 3]”, in data set [1], the “% vs. control” value came out at 78.5% and the “Fluorescense units” value came to 16754 fluorescence units.

A word on the amount remaining: it is the share of the starting amount still present when the sample was taken. As a reminder, the EC50 is the concentration needed to bring the measured effect to its halfway point. Low values mean a more potent agent, high ones a less potent agent. As a reminder, the viability is a read-out of living cells in per cent, often relative to untreated cells.

(Values after US12459973B2, “Peptide compounds for reducing side effects of CB1 receptor agonists” (priority 2019, dated 2025).)
